Data from patent publication US7435846B2, “Absorption and bioavailability of carotenoids, formulations and applications” (Industrial Organica, S.A. De C.V., priority 2006, dated 2008).

Parameters: species or system human
Settings: in vivo
Procedure: Ten (10) healthy non smoking students (ranging in age from 22-27 years), were subjected to the following two treatments:
(A) Four (4) weeks of ingesting one gelatin capsule at their noonday meal, containing 20 mg of crystalline lutein dispersed in soybean oil and after a 12 hours fast (overnight) blood samples were taken early the next morning for plasma analysis.
(B) After a two (2) week interval washout period, the same group of subjects were given, during a period of four (4) weeks, a gelatin capsule containing a micellar dispersion of lutein diacetate (prepared as described in example 3) in soybean oil. Each capsule contained 24.2 mg of lutein diacetate and was ingested at lunch time. After a twelve (12) hour fast, blood samples were collected in the early morning of the next day for plasma analysis.

ratio of the average absorption of the lutein diacetate divided by the average absorption of the free lutein: 2.81 times
Substance: lutein diacetate
